Reference: patent US6495568B1, “Hydroxamic acid derivatives as matrix metalloprotease (MMP) inhibitors” (Warner-Lambert Company, priority 1997, dated 2002)

Tests used:
[1] = molecular target: T1, MMP-2 (Homo sapiens, UniProt P08253); test: Inhibition of MMP-2 (fluorogenic peptide cleavage); type: biochemical; conditions: in vitro, catalytic domain MMP-2
T1 construct: Catalytic domains MMP-2, MMP-3 and MMP-9 were prepared in Pfizer Central Research laboratories
Description: (§1) The biological activities of the compounds of the present invention were determined by the following test methods, which are based on the ability of the compounds to inhibit the cleavage of various fluorogenic peptides by MMPs 1, 2, 3, 9, 13 and 14.
(§2) The assays for MMPs 2, 3, 9 and 14 are based upon the original protocol described in FEBS, 1992, 296, 263, with the minor modifications described below.
(§3) Inhibition of MMP-2, MMP-3 and MMP-9
(§4) Catalytic domains MMP-2, MMP-3 and MMP-9 were prepared in Pfizer Central Research laboratories. A stock solution of MMP-2, MMP-3 or MMP-9 (1 μM) was activated by the addition of APMA. For MMP-2 and MMP-9, a final concentration of 1 mM APMA was added, followed by incubation for 1 hour at 37° C. MMP-3 was activated by the addition of 2 mM APMA, followed by incubation for 3 hours at 37° C. The enzymes were then diluted in Tris-HCl assay buffer (100 mM Tris, 100 mM NaCl, 10 mM CaCl2 and 0.16% Brij 35, pH 7.5) to a concentration of 10 nM. The final concentration of enzyme used in the assays was 1 nM.
(§5) The fluorogenic substrate used in this screen was Mca-Arg-Pro-Lys-Pro-Tyr-Ala-Nva-Trp-Met-Lys(Dnp)-NH2 (Bachem Ltd., Essex, UK) as originally described in J.Biol.Chem., 1994, 269, 20952. This substrate was selected because it has a balanced hydrolysis rate against MMPs 2, 3 and 9 (kcat/km of 54,000, 59,400 and 55,300 s^−1 M^−1 respectively). The final substrate concentration used in the assay was 5 μM.
(§6) Determination of Enzyme Inhibition
(§7) The test compound was dissolved in dimethyl sulphoxide and diluted with assay buffer so that no more than 1% dimethyl sulphoxide was present. Test compound and enzyme were added to each well of a 96 well plate and allowed to equilibrate for 15 minutes at 37° C. in an orbital shaker prior to the addition of substrate. Plates were then incubated for 1 hour at 37° C., prior to determination of fluorescence using a fluorimeter (Fluostar; BMG Lab Technologies, Aylesbury, UK) at an excitation wavelength of 328 nm and emission wavelength of 393 nm. The potency of inhibition was measured from the amount of substrate cleavage obtained using a range of test compound concentrations and, from the resulting dose-response curve, an IC50 value (the concentration of inhibitor required to inhibit 50% of the enzyme activity) was calculated.

[2] = molecular target: T2, MMP-3 (Homo sapiens, UniProt P08254); test: Inhibition of MMP-3 (fluorogenic peptide cleavage); type: biochemical; conditions: in vitro, catalytic domain MMP-3
T2 construct: Catalytic domains MMP-2, MMP-3 and MMP-9 were prepared in Pfizer Central Research laboratories; made in house
T2 sequence (P08254 100-272 limits assumed): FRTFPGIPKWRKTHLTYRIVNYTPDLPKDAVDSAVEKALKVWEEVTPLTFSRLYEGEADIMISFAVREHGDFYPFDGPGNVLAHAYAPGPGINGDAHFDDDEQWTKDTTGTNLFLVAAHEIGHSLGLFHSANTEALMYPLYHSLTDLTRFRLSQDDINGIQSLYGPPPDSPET
Description: as §1, §2, §3, §4, §5, §6, §7

[3] = molecular target: T3, Human recombinant MMP-13 (Homo sapiens, UniProt P45452); test: Inhibition of MMP-13 (fluorogenic peptide cleavage); type: biochemical; conditions: in vitro
T3 construct: purchased PanVera Corporation (Madison, Wis.)
Description: as §1
Human recombinant MMP-13 was prepared by PanVera Corporation (Madison, Wis.) and characterised at Pfizer Central Research laboratories. A 1.9 mg/ml stock solution was activated with 2 mM APMA for 2 hours at 37° C. MMP-13 was then diluted in assay buffer (50 mM Tris, 200 mM NaCl, 5 mM CaCl2, 20 μM ZnCl2 and 0.02% Brij 35, pH 7.5) to a concentration of 5.3 nM. The final concentration of enzyme used in the assay was 1.3 nM.
The fluorogenic substrate used in this screen was Dnp-Pro-Cha-Gly-Cys(Me)-His-Ala-Lys(NMA)-NH2. The final substrate concentration used in the assay was10 μM.
as §6
The test compound was dissolved in dimethyl sulphoxide and diluted with assay buffer so that no more than 1% dimethyl sulphoxide was present. Test compound and enzyme were added to each well of a 96 well plate. The addition of substrate to each well initiated the reaction. Fluorescence intensity was determined using a 96 well plate fluorimeter (Cytofluor II; PerSeptive Biosystems, Inc., Framingham, Mass.) at an excitation wavelength of 360 nm and emission wavelength of 460 nm. […]

[4] = tested on: human ovarian carcinoma xenografts; conditions: mice carrying human ovarian carcinoma xenografts; Cancer Res., 1993, 53, 2087; cited from earlier work

T1 sequence (P08253 with tags, fused parts or gaps DEL222-396 limits assumed): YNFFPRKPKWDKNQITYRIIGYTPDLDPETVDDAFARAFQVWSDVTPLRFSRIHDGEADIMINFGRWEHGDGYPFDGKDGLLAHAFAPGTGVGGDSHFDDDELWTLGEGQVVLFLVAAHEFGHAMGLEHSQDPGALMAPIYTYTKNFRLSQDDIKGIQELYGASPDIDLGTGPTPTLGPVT

Structure (SMILES) | IC50 [1] [nM] | IC50 [2] [nM] | IC50 [3] [nM] | melting point [°C] | survival [4] | tumour burden [4]
O=C(CS(=O)(=O)N1CCC(c2ccc(-c3ccccc3)cc2)CC1)NO [Example 3, N-Hydroxy-2-[4-(4-phenylphenyl)piperidin-1-ylsulphonyl]acetamide] | 38 | 26 | 25 | 200 to 201 | – | –
CNC(=O)[C@H](Cc1ccccc1)NC(=O)[C@H](CC(C)C)[C@H](CSc1cccs1)C(=O)NO [BB-94] | – | – | – | – | prolong the survival | decrease the tumour burden
COc1cccc(-c2ccc(C3CCN(S(=O)(=O)C4(C(=O)NO)Cc5ccccc5C4)CC3)cc2C)c1 [Example 50, N-Hydroxy-2-{4-[4-(3-methoxyphenyl)-3-methylphenyl]piperidin-1-ylsulphonyl}indane-2-carboxymide] | 1910 | 23 | – | 199 to 202 | – | –
CCOc1cccc(-c2ccc(C3=CCN(S(=O)(=O)C4(C(=O)NO)CCOCC4)CC3)cc2C)c1 [Example 28, N-Hydroxy-4-{4-[4-(3-ethoxyphenyl)-3-methylphenyl]-1,2,3,6-tetrahydropyridin-1-ylsulphonyl}tetrahydropyran-4-carboxymide] | 432 | 24 | – | 152 to 154 | – | –
Cc1cc(C2=CCN(S(=O)(=O)CC(=O)NO)CC2)ccc1-c1ccc2c(c1)OCO2 [Example 56, N-Hydroxy-2-{4-[4-(1,3-benzodioxol-5-yl)-3-methylphenyl]-1,2,3,6-tetrahydropyridin-1-ylsulphonyl}acetamide] | 387 | 15 | – | 165 to 167 | – | –

More lines, main results first:

IC50 [1] [nM] | IC50 [2] [nM] | IC50 [3] [nM] | melting point [°C] | Structure (SMILES) | survival [4] | tumour burden [4]
173 | 20 | – | – | C=CCC(C)(C(=O)NO)S(=O)(=O)N1CC=C(c2ccc(-c3ccccc3)c(C)c2)CC1 (racemic) [Example 15, N-Hydroxy-2(R,S)-methyl-2-[4-(3-methyl-4-phenylphenyl)-1,2,3,6-tetrahydropyridin-1-ylsulphonyl]pent-4-enamide] | – | –
525 | 18 | – | 158 to 160 | Cc1cc(C2=CCN(S(=O)(=O)C(C)(C)C(=O)NO)CC2)ccc1-c1cnc2ccccc2c1 [Example 40, N-Hydroxy-2-methyl-2-{4-[3-methyl-4-(quinolin-3-yl)phenyl]-1,2,3,6-tetrahydropyridin-1-ylsulphonyl}propanamide] | – | –
315 | 16 | 28 | 190 to 191 | Cc1cc(C2=CCN(S(=O)(=O)CC(=O)NO)CC2)ccc1-c1ccccc1 [Example 2, N-Hydroxy-2-[4-(3-methyl-4-phenylphenyl)-1,2,3,6-tetrahydropyridin-1-ylsulphonyl]acetamide] | – | –
